According to the METLIN SMRT retention time set (Domingo-Almenara et al. 2019):

assay: gradient 5% acetonitrile 3 min, to 50% in 2 min, to 85% in 15 min, held 3 min, 100 µL/min; conditions: column: Zorbax Extend-C18 2.1 x 50 mm; eluents: water / acetonitrile, 0.1% formic acid
Summary of the method: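 The mobile phases were water and acetonitrile, each with 0.1% formic acid, pumped at 100 μL/min through a Zorbax Extend-C18 column (2.1 × 50 mm, 1.8 μm). Pure standards were injected as mixtures of ~100 molecules and detected by a quadrupole time-of-flight mass spectrometer in positive and negative ionization mode. Retention time came from computationally picked adduct peaks, each inspected by hand.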

| RP-LC retention time | Compound |
| --- | --- |
| 690 s | CCOC(=O)c1nc(NCCCN2CCC(Cc3ccccc3)CC2)c2ccccc2n1 |
| 800 s | Cc1ccc(N2CCN(C(=O)c3csc(C(=O)NC4CC4)n3)CC2)cc1 |
| 830 s | Cc1cccc(NC(=O)C2CCN(S(=O)(=O)c3ccc4c(c3)sc(=O)n4C)CC2)c1C |
| 712 s | Cc1ccccc1S(=O)(=O)N1CCC2(CC1)NCCN=C2NCc1cccc(F)c1 |
| 651 s | Cc1nc(N2CCCC2)cc(N2CCN(C(=O)c3ccccc3Br)CC2)n1 |
| 934 s | COc1ccc2nc3oc(C(=O)NCCCN4CCCC(C)C4)cc3cc2c1 (stereo unspecified) |
| 626 s | Cn1cc(-c2cc3n(n2)CCC(=O)N3CC(=O)N2CCN(c3ccccn3)CC2)c2ccccc21 |
| 793 s | CN(CCCNC(=O)C1CCc2nc(N3CCCCC3)ncc2C1)c1ccccc1 (stereo unspecified) |
| 785 s | O=C(NC1CC1)c1ccc(OCC2CCCN2C(=O)c2cc(F)ccc2F)cc1 (stereo unspecified) |
| 1050 s | COCCn1cc(C(=O)Nc2cccc(Cl)c2)c2nn(-c3ccccc3)c(=O)c-2c1 |
| 708 s | COC(=O)c1ncn2c1C(=O)N(c1cccc(C)c1C)C(C)(C(=O)NCc1ccccc1)C2 (stereo unspecified) |
| 859 s | O=C(CN1C(=O)CCCc2ccccc21)NCc1ccc(F)c(Cl)c1 |
| 756 s | CCCN1C(=O)c2c(C(=O)NCc3ccccc3)ncn2CC1(C)C(=O)NC1CCCC1 (stereo unspecified) |
| 928 s | O=C(NC1CCCCC1)C1CCN(S(=O)(=O)c2ccc(-c3noc(C4CC4)n3)cc2)CC1 |
| 1210 s | Cc1nn(-c2nc(-c3ccc(F)cc3)cs2)c(C)c1CC(=O)N1CCCCCC1 |
| 650 s | O=C(NCCCN1CCCC1=O)C1=C2CCCN2c2ccc(F)cc2S1(=O)=O |
| 909 s | CCn1cc(-c2ccc(F)cc2)cc1C(=O)NCC1CCCO1 (stereo unspecified) |
| 990 s | Cc1cc2nn(CC(=O)NCc3ccccc3)c(=O)n2c(Nc2ccccc2C)n1 |
| 1040 s | Cc1ccc(CNC(=O)C2(C)CCN(S(=O)(=O)c3ccc(C)cc3C)CC2)cc1 |
| 1050 s | CCOc1ccccc1-c1noc(CN2C(=O)COc3cc(C)ccc32)n1 |
| 952 s | Cc1ccc(Cn2c(CN3CCC(C(=O)NCCC4=CCCCC4)CC3)cc3ccccc32)cc1 |
| 741 s | O=C(CC1CCN(C(=O)NCc2ccccc2)CC1)NCc1cccc(F)c1 |
| 853 s | Cc1nn2c(CNS(=O)(=O)c3ccccc3Cl)c(-c3ccccc3)nc2s1 |
| 767 s | Cc1ccc(NC(=O)Nc2ccccc2)c(=O)n1CC(=O)N1CCCC1 |
| 910 s | COc1ccc(-c2cc(C(=O)N3CCN(S(=O)(=O)c4ccc(F)c(C)c4)CC3)[nH]n2)cc1 |
| 581 s | CCC(C)NC(=O)N1CCN(Cc2nc3cc(C(=O)N4CCCC4)ccc3n2C)CC1 (stereo unspecified) |
| 737 s | COc1cccc(CNC(=O)C2(c3ccc(NC(C)=O)cc3)CCC2)c1 |
| 1040 s | COc1ccc(CNC(=O)C2CCCN(S(=O)(=O)c3cc(-c4noc(C)n4)cs3)C2)cc1 (stereo unspecified) |
| 842 s | COc1ccccc1-c1noc(C2CCCN2C(=O)Nc2ccc(F)cc2)n1 (stereo unspecified) |
| 591 s | OC1(c2ccccn2)CCOC2(CCN(Cc3ccc(Cl)c(F)c3)CC2)C1 (stereo unspecified) |

Second part, the molecule before the results:

| Compound | RP-LC retention time |
| --- | --- |
| CN1C(=O)COc2ccc(-c3csc(NC(=O)C4CCCO4)n3)cc21 (stereo unspecified) | 762 s |
| Cc1cccc2c(C(N)=O)c3c(nc12)CCC3 | 560 s |
| CCC(C)NC(=O)Cn1nc2c3cc(-c4ccc(F)cc4)nn3ccn2c1=O (stereo unspecified) | 764 s |
| CC1(C)CC2CC(C)(CN2c2ncnc(N)c2[N+](=O)[O-])C1 (stereo unspecified) | 867 s |
| Cc1nn(CC(=O)N2CCN(c3ccc(Cl)cc3)CC2)c(=O)c2noc(C)c12 | 821 s |
| COc1ccc(N2CCN(c3cc(SCC(=O)Nc4cc(OC)cc(OC)c4)ncn3)CC2)cc1 | 814 s |
| CCc1ccc(NS(=O)(=O)c2cc(-c3c(CC)noc3NC(C)=O)ccc2C)cc1 | 886 s |
| O=C1NC(C(=O)Nc2cccc(Cl)c2)Cn2cccc21 (stereo unspecified) | 721 s |
| CC(C)C(=O)N1CCc2cc(C(=O)N3CCCC3)ccc21 | 720 s |
| CCOC(=O)c1cc(-c2ccc(OC)c(S(=O)(=O)N3CCN(c4ccccn4)CC3)c2)on1 | 726 s |
| CCOC(=O)C1C(=O)C=C(c2ccc(OC)c(OC)c2)CC1c1cccc(OC)c1OC (stereo unspecified) | 923 s |
| Fc1cc(F)cc(-c2nc(-c3cccc(-c4ccn[nH]4)c3)no2)c1 | 1060 s |
| Cc1ccc2nc(NC(=O)Cn3c(=O)n(C(C)C)c4ccc(-c5noc(C)n5)cc43)sc2c1 | 948 s |
| COc1ccc(N(C)c2nnc(-c3ccc(NC(=O)c4ccco4)cc3)s2)cc1 | 712 s |
| COc1ccc(Nc2c(-c3ccc(SC)cc3)nc3cnccn23)cc1 | 908 s |
| CCC1Oc2ccc(C)cc2N(CC(=O)NCCN(C)C)C1=O (stereo unspecified) | 631 s |
| CCN1CCN(c2ncc3c(n2)CCN(Cc2ccc(OC)c(OC)c2OC)C3)CC1 | 547 s |
| COc1ccc2c(c1)C1(CCN(C(=O)c3ccc(C)c(F)c3)C1)C(=O)N2C (stereo unspecified) | 610 s |

| Compound | RP-LC retention time |
| --- | --- |
| O=C(c1csc(-c2ccc(N3CCCC3)nc2)n1)N1CCCC1 | 596 s |
| CNC(=O)c1ccsc1NC(=O)c1cn(C)nc1OC | 616 s |
| Cc1noc(C2CN(C(=O)Nc3cccc(Cl)c3F)CC23CCOCC3)n1 (stereo unspecified) | 783 s |
| Cc1cc(C(=O)Nc2nc(-c3nc4ccccc4s3)cs2)c(C)o1 | 1040 s |
| CCCOC(=O)c1[nH]c2c(c1C)C(=O)CC(c1cc(OC)c(OC)c(OC)c1)C2 (stereo unspecified) | 610 s |
| CCc1ccccc1S(=O)(=O)N1CCC(n2cnnc2CC)CC1 | 595 s |
| Cn1ncc2c(N3CCSCC3)nc(C(=O)N3CCOCC3)nc21 | 635 s |
| CC(C)Cc1cc(-c2nnc3sc(-c4cccc(N(C)C)c4)nn23)n[nH]1 | 1020 s |
| COc1cccc(CNC(=O)c2cc3c(=O)n(C)ccc3n2C)c1 | 663 s |
| CCOC(=O)N1CCN(C(=O)CSc2nnc3n2CCN3c2ccc(OC)cc2)CC1 | 623 s |
| Cc1ccsc1CN1CCc2[nH]nc(C(=O)N3CCOCC3)c2C1 | 568 s |
| O=C(O)c1cnn2c(C(F)(F)F)cc(-c3ccc(F)cc3)nc12 | 823 s |
| CCc1cccc(C)c1Nc1c(-c2cc(Br)ccc2O)nc2nc(C)cc(C)n12 | 1040 s |
| CCOC(=O)c1nc(N(C)c2ccccc2CC)c2ccccc2n1 | 1010 s |
| CC(C)c1cc(C(=O)Nc2ccc(F)c(Cl)c2)nn1C1CCS(=O)(=O)C1 (stereo unspecified) | 997 s |
| N#Cc1c(NC(=O)c2ccc([N+](=O)[O-])cc2Cl)sc2c1CCCC2 | 1050 s |
| CCCn1cc(S(=O)(=O)Nc2cccc(CC)c2)c2cccnc21 | 943 s |
| CCc1noc(NC(C)=O)c1-c1ccc(OC)c(S(=O)(=O)N2CCN(c3ccccn3)CC2)c1 | 614 s |
